# In patent US20260184710A1, “CASITAS B-LINEAGE LYMPHOMA PROTOONCOGENE B (CBL-B) DEGRADING COMPOUNDS AND ASSOCIATED METHODS OF USE” (Arvinas Operations, Inc., priority 2022, published 2026):
# Biological target: T1, Cbl-b (Homo sapiens, UniProt Q13191)
# T1 construct: Cbl-b-HiBit KI Jurkat Cells were purchased from Promega; host or cells: Cbl-b-HiBiT knock-in Jurkat cells
# Experiment: Cbl-b Degradation Method B (Nano-Glo HiBiT lytic detection)
# Assay type: cell-based
# Conditions: Cbl-b-HiBit KI Jurkat Cells, incubated at least 6-24 hours; for DC50: half maximal degradation, read-out: Cbl-b Degredation Method B IC50; for Dmax: maximum degradation observed, read-out: Cbl-b Degredation Method B Dmax (%)
# Method in brief: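 Cbl-b-HiBiT knock-in Jurkat cells (20,000/well) were treated after ~24 h plating with an 11-point 1:3 series for 6-24 h at 37° C. Remaining Cbl-b measured by Nano-Glo HiBiT lytic luminescence. DC50 and Dmax expressed as % of control.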
# T1 sequence (Q13191 whole entry): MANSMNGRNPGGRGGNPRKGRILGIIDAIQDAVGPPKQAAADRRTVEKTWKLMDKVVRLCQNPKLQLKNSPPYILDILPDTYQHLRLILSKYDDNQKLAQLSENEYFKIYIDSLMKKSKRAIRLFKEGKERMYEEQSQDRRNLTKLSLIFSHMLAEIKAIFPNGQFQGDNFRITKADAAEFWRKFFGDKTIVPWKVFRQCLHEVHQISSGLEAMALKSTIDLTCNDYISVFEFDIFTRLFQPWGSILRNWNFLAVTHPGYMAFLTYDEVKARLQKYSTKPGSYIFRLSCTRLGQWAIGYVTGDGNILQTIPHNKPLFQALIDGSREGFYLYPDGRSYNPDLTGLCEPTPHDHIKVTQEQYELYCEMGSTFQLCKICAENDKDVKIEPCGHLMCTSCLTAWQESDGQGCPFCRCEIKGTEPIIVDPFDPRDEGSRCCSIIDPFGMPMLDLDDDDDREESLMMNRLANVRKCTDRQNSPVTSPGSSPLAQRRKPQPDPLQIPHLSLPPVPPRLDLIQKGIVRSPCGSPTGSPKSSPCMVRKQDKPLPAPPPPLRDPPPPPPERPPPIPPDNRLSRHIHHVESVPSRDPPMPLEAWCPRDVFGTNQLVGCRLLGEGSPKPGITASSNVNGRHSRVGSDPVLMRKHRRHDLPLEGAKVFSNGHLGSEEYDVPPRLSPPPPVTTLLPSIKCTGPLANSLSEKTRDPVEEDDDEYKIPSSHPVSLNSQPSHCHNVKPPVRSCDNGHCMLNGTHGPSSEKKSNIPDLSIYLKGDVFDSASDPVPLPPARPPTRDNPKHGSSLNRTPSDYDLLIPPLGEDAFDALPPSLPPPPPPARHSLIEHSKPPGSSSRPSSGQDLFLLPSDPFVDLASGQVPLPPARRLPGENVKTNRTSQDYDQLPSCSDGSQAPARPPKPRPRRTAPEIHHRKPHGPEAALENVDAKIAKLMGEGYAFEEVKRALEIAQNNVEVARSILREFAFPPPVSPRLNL
SMILES,DC50 [nM],Dmax [%]
"C[C@@H]1C[C@H](CN2CCC(CN3CCC(CN4CCN(c5ccc6c(c5)C(=O)N(C5CCC(=O)NC5=O)C6=O)CC4)CC3)CC2)CN(c2cc3c(c(C(F)(F)F)c2)CN(c2cccc(C4(Cc5nncn5C)COC4)c2)C3=O)C1 (stereo partly drawn) [Example 73, 2-(2,6-dioxopiperidin-3-yl)-5-[4-({1-[(1-{[(3R,5R)-5-methyl-1-[2-(3-{3-[(4-methyl-4H-1,2,4-triazol-3-yl)methyl]oxetan-3-yl}phenyl)-3-oxo-7-(trifluoromethyl)-2,3-dihydro-1H-isoindol-5-yl]piperidin-3-yl]methyl}piperidin-4-yl)methyl]piperidin-4-yl}methyl)piperazin-1-yl]-2,3-dihydro-1H-isoindole-1,3-dione]",5 to 50,35 to 70
"Cn1cnnc1CC1(c2cccc(N3Cc4c(cc(CN5CCC(CCC6CCN(c7ccc8c(c7)C(=O)N(C7CCC(=O)NC7=O)C8=O)CC6)CC5)cc4C(F)(F)F)C3=O)c2)COC1 (stereo not drawn) [Example 71, 2-(2,6-dioxopiperidin-3-yl)-5-{4-[2-(1-{[2-(3-{3-[(4-methyl-4H-1,2,4-triazol-3-yl)methyl]oxetan-3-yl}phenyl)-3-oxo-7-(trifluoromethyl)-2,3-dihydro-1H-isoindol-5-yl]methyl}piperidin-4-yl)ethyl]piperidin-1-yl}-2,3-dihydro-1H-isoindole-1,3-dione]",> 500,–
"Cn1cnnc1CC1(c2cccc(N3Cc4c(cc(CN5CCN(CCCOc6ccc7c(c6)C(=O)N(C6CCC(=O)NC6=O)C7=O)CC5)cc4C(F)(F)F)C3=O)c2)COC1 (stereo not drawn) [Example 47, 2-(2,6-dioxopiperidin-3-yl)-5-[3-(4-{[2-(3-{3-[(4-methyl-4H-1,2,4-triazol-3-yl)methyl]oxetan-3-yl}phenyl)-3-oxo-7-(trifluoromethyl)-2,3-dihydro-1H-isoindol-5-yl]methyl}piperazin-1-yl)propoxy]-2,3-dihydro-1H-isoindole-1,3-dione]",> 500,–
"Cn1cnnc1CC1(c2cccc(N3Cc4c(cc(CN5CC(C6CN(c7ccc(Oc8ccc9c(c8)C(=O)N(C8CCC(=O)NC8=O)C9=O)cc7)C6)C5)cc4C(F)(F)F)C3=O)c2)COC1 (stereo not drawn) [Example 64, 2-(2,6-dioxopiperidin-3-yl)-5-[4-(1′-{[2-(3-{3-[(4-methyl-4H-1,2,4-triazol-3-yl)methyl]oxetan-3-yl}phenyl)-3-oxo-7-(trifluoromethyl)-2,3-dihydro-1H-isoindol-5-yl]methyl}-[3,3′-biazetidin]-1-yl)phenoxy]-2,3-dihydro-1H-isoindole-1,3-dione]",> 500,–
"Cn1cnnc1CC1(c2cccc(N3Cc4c(cc(CN5CCC(Cn6cccc(CN7CCC(=O)NC7=O)c6=O)CC5)cc4C(F)(F)F)C3=O)c2)COC1 [Example 55, 1-({1-[(1-{[2-(3-{3-[(4-methyl-4H-1,2,4-triazol-3-yl)methyl]oxetan-3-yl}phenyl)-3-oxo-7-(trifluoromethyl)-2,3-dihydro-1H-isoindol-5-yl]methyl}piperidin-4-yl)methyl]-2-oxo-1,2-dihydropyridin-3-yl}methyl)-1,3-diazinane-2,4-dione]",> 500,–
"Cn1cnnc1CC1(c2cccc(N3Cc4c(cc(CN5CCC(CN6CCN(c7ccc8c(c7)C(=O)N(C7CCC(=O)NC7=O)C8=O)CC6)C5)cc4C(F)(F)F)C3=O)c2)COC1 (stereo not drawn) [Example 80, 2-(2,6-dioxopiperidin-3-yl)-5-{4-[(1-{[2-(3-{3-[(4-methyl-4H-1,2,4-triazol-3-yl)methyl]oxetan-3-yl}phenyl)-3-oxo-7-(trifluoromethyl)-2,3-dihydro-1H-isoindol-5-yl]methyl}pyrrolidin-3-yl)methyl]piperazin-1-yl}-2,3-dihydro-1H-isoindole-1,3-dione]",> 500,–
"Cn1cnnc1CC1(c2cccc(N3Cc4c(cc(CN5CCC(CC6CCN(c7ccc8c(c7)C(=O)N(C7CCC(=O)NC7=O)C8=O)CC6)CC5)cc4C(F)(F)F)C3=O)c2)COC1 (stereo not drawn) [Example 78, 2-(2,6-dioxopiperidin-3-yl)-5-{4-[(1-{[2-(3-{3-[(4-methyl-4H-1,2,4-triazol-3-yl)methyl]oxetan-3-yl}phenyl)-3-oxo-7-(trifluoromethyl)-2,3-dihydro-1H-isoindol-5-yl]methyl}piperidin-4-yl)methyl]piperidin-1-yl}-2,3-dihydro-1H-isoindole-1,3-dione]",> 500,–
"Cn1cnnc1CC1(c2cccc(N3Cc4c(cc(CN5CCC5CC5CCN(c6ccc7c(c6)C(=O)N(C6CCC(=O)NC6=O)C7=O)CC5)cc4C(F)(F)F)C3=O)c2)COC1 (stereo not drawn) [Example 70, 2-(2,6-dioxopiperidin-3-yl)-5-{4-[(1-{[2-(3-{3-[(4-methyl-4H-1,2,4-triazol-3-yl)methyl]oxetan-3-yl}phenyl)-3-oxo-7-(trifluoromethyl)-2,3-dihydro-1H-isoindol-5-yl]methyl}azetidin-2-yl)methyl]piperidin-1-yl}-2,3-dihydro-1H-isoindole-1,3-dione]",> 500,–

# Now from value to compound:
DC50 [nM],Dmax [%],SMILES
> 500,–,"C[C@@H]1c2nc(N3CCC(O[C@H]4CC[C@H](CN5CCN(Cc6cc7c(c(C(F)(F)F)c6)CN(c6cccc(C8(Cc9nncn9C)CC(C#N)C8)c6)C7=O)CC5(C)C)CC4)CC3)ccc2C(=O)N1C1CCC(=O)NC1=O (single isomer, unassigned) [Example 313, (1r***,3r***)-3-(3-{6-[(3,3-dimethyl-4-{[(1r**,4r**)-4-({1-[(7R*)-6-(2,6-dioxopiperidin-3-yl)-7-methyl-5-oxo-5H,6H,7H-pyrrolo[3,4-b]pyridin-2-yl]piperidin-4-yl}oxy)cyclohexyl]methyl}piperazin-1-yl)methyl]-1-oxo-4-(trifluoromethyl)-2,3-dihydro-1H-isoindol-2-yl}phenyl)-3-[(4-methyl-4H-1,2,4-triazol-3-yl)methyl]cyclobutane-1-carbonitrile]"
< 5,> 70,"CC1c2nc(N3CCC(OC4CCC(CN5[C@H](C)CN(Cc6cc7c(c(C(F)(F)F)c6)CN(c6cccc(C8(Cc9nncn9C)COC8)c6)C7=O)C[C@@H]5C)CC4)CC3)ccc2C(=O)N1C1CCC(=O)NC1=O (stereo partly drawn) [Example 243, 3-[7-methyl-5-oxo-2-(4-{[(1rs,4rs)-4-{[(2R,6S)-2,6-dimethyl-4-{[2-(3-{3-[(4-methyl-4H-1,2,4-triazol-3-yl)methyl]oxetan-3-yl}phenyl)-3-oxo-7-(trifluoromethyl)-2,3-dihydro-1H-isoindol-5-yl]methyl}piperazin-1-yl]methyl}cyclohexyl]oxy}piperidin-1-yl)-5H,6H,7H-pyrrolo[3,4-b]pyridin-6-yl]piperidine-2,6-dione]"
5 to 50,35 to 70,"CC1c2nc(N3CCC(O[C@H]4CC[C@H](CN5CCN(Cc6cc(C(F)(F)F)c7cn(-c8cccc(C9(Cc%10nncn%10C)CC(C#N)C9)c8)nc7c6)C(C)(C)C5)CC4)CC3)ccc2C(=O)N1C1CCC(=O)NC1=O (stereo partly drawn) [Example 252, (1r**,3r**)-3-(3-{6-[(2,2-dimethyl-4-{[(1r*,4r*)-4-({1-[6-(2,6-dioxopiperidin-3-yl)-7-methyl-5-oxo-5H,6H,7H-pyrrolo[3,4-b]pyridin-2-yl]piperidin-4-yl}oxy)cyclohexyl]methyl}piperazin-1-yl)methyl]-4-(trifluoromethyl)-2H-indazol-2-yl}phenyl)-3-[(4-methyl-4H-1,2,4-triazol-3-yl)methyl]cyclobutane-1-carbonitrile]"
< 5,> 70,"C[C@@H]1CN(CC2CCC(OC3CCN(c4ccc5c(n4)[C@@H](C)N(C4CCC(=O)NC4=O)C5=O)CC3)CC2)CCN1Cc1cc2c(c(C(F)(F)F)c1)CN(c1cccc([C@]3(Cc4nncn4C)C[C@H](C#N)C3)c1)C2=O (single isomer, unassigned) [Example 239, (1rs&,3rs&)-3-[3-(6-{[(2R)-2-methyl-4-{[(1rs,4rs)-4-({1-[(7R*)-6-(2,6-dioxopiperidin-3-yl)-7-methyl-5-oxo-5H,6H,7H-pyrrolo[3,4-b]pyridin-2-yl]piperidin-4-yl}oxy)cyclohexyl]methyl}piperazin-1-yl]methyl}-1-oxo-4-(trifluoromethyl)-2,3-dihydro-1H-isoindol-2-yl)phenyl]-3-[(4-methyl-4H-1,2,4-triazol-3-yl)methyl]cyclobutane-1-carbonitrile]"
> 500,–,"Cn1cnnc1CC1(c2cccc(-n3cc4c(C(F)(F)F)cc(CN5CCC[C@H](CN6CCC[C@@H](CN7CCN(c8ccc9c(c8F)CN(C8CCC(=O)NC8=O)C9=O)CC7)C6)C5)cc4n3)c2)COC1 (stereo partly drawn) [Example 257, 3-[4-fluoro-5-(4-{[(3R)-1-{[(3R)-1-{[2-(3-{3-[(4-methyl-4H-1,2,4-triazol-3-yl)methyl]oxetan-3-yl}phenyl)-4-(trifluoromethyl)-2H-indazol-6-yl]methyl}piperidin-3-yl]methyl}piperidin-3-yl]methyl}piperazin-1-yl)-1-oxo-2,3-dihydro-1H-isoindol-2-yl]piperidine-2,6-dione]"
> 500,–,"Cn1cnnc1C[C@]1(c2cccc(N3Cc4c(cc(CN5CCN(C[C@H]6CC[C@H](OC7CCN(c8ccc(C9CCC(=O)NC9=O)c(F)c8)CC7)CC6)CC5)cc4C(F)(F)F)C3=O)c2)C[C@H](C#N)C1 (stereo partly drawn) [Example 201, (1r,3r)-3-[(4-methyl-4H-1,2,4-triazol-3-yl)methyl]-3-(3-{1-oxo-6-[(4-{[(1r,4r)-4-({1-[4-(2,6-dioxopiperidin-3-yl)-3-fluorophenyl]piperidin-4-yl}oxy)cyclohexyl]methyl}piperazin-1-yl)methyl]-4-(trifluoromethyl)-2,3-dihydro-1H-isoindol-2-yl}phenyl)cyclobutane-1-carbonitrile]"
